Laboratory results published in US8501708B2, “Adenosine compounds and their use thereof” (Inotek Pharmaceuticals Corporation, priority 2011, dated 2013).
pKi: −log10 of the molar value.

What was measured:
[1] = biological target: human recombinant A3 adenosine receptor (Homo sapiens (Human), UniProt P0DMS8); assay: Adenosine receptor binding, displacement of specific [3H]NECA binding; settings: [3H]NECA displacement, CHO cells stably transfected with human recombinant A3 adenosine receptor
Source text: (§1) The compounds were studied in binding assays to determine their selectivity and potency to the A1, A2a and A3 adenosine receptors.

[2] = biological target: human recombinant A2A adenosine receptor (Homo sapiens (Human), UniProt P29274); assay: as above; settings: [3H]NECA displacement, CHO cells stably transfected with human recombinant A2A adenosine receptor
Sequence of human recombinant A2A adenosine receptor (P29274 whole entry): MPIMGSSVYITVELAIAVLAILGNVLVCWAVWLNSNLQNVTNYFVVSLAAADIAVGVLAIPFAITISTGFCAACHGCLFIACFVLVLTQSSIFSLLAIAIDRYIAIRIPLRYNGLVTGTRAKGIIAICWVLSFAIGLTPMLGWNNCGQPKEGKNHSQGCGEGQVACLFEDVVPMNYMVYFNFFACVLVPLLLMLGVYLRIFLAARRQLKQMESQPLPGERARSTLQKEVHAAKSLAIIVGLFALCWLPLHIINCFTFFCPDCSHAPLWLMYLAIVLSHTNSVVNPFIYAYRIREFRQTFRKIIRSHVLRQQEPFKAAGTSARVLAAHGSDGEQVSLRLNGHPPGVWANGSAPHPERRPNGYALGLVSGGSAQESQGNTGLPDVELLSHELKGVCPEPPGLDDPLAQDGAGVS
Source text: as §1

[3] = system: ocular normotensive Dutch-Belted rabbits; assay: Changes in intraocular pressure after topical administration to the eye; format: in vivo, rabbit; settings: for changes in IOP relative to baseline after dosing (in words): 0-6 hours
Method: The study involved groups of eight rabbits and the rabbits were acclimated for two days before they received a single dose in either the right eye or left eye of the HPCD control. The IOP of the groups of rabbits were recorded at 0, 1, 2, 4 and 6 hours after dosing of the control.

[4] = biological target: human recombinant A1 adenosine receptor (Homo sapiens (Human), UniProt P30542); assay: Adenosine receptor binding, displacement of specific [3H]CCPA binding; settings: [3H]CCPA displacement, CHO cells stably transfected with human recombinant A1 adenosine receptor
Sequence of human recombinant A1 adenosine receptor (P30542 whole entry): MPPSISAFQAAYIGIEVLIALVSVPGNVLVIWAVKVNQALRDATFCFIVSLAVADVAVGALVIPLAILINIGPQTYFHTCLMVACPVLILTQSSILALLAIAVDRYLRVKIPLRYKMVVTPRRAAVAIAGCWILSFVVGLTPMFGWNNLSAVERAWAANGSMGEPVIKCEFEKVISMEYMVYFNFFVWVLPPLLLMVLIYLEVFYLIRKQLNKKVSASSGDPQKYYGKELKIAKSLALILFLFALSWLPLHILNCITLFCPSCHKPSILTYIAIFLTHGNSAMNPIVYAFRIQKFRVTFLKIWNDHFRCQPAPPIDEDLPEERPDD
Source text: as §1

Sequence of human recombinant A3 adenosine receptor (P0DMS8 whole entry): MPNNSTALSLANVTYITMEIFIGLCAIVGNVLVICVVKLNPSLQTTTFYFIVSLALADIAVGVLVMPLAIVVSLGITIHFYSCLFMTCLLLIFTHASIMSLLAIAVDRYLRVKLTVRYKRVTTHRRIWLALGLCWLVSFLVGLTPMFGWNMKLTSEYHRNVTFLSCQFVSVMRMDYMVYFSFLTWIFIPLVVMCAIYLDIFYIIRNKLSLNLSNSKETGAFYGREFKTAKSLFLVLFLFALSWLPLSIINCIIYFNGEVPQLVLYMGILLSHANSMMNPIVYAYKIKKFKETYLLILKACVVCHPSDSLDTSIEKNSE

SMILES | pKi [1] | pKi [2] | pKi [4] | return of IOP to baseline levels, time post dosing ([3]; topical single dose 200 mcg) [h] | reduction of IOP ([3]; topical single dose 200 mcg in HPCD formulation, 2 hours post dosing) [%] | changes in IOP relative to baseline after dosing (in words) ([3]; topical single dose 200 mcg)
OC[C@H]1O[C@@H](n2cnc3c(N[C@@H]4CCC[C@H]4OCc4cccc(F)c4)ncnc32)[C@H](O)[C@@H]1O [Compound 19, (2R,3R,4S,5R)-2-(6-((1R,2R)-2-(3-fluorobenzyloxy)cyclopentylamino)-9H-purin-9-yl)-5-(hydroxymethyl)tetrahydrofuran-3,4-diol] | 5.39 | 5.59 | – | – | – | –
OC[C@H]1OC(n2cnc3c(NC4CCC[C@@H]4OCc4ccc(F)cc4)ncnc32)[C@H](O)[C@@H]1O (stereo partly shown) [Compound 9] | 5.73 | 4.94 | – | – | – | –
OC[C@H]1O[C@@H](n2cnc3c(N[C@@H]4CCC[C@H]4OCc4ccc(F)cc4)ncnc32)[C@H](O)[C@@H]1O [Compound 20, (2R,3R,4S,5R)-2-(6-((1R,2R)-2-(4-fluorobenzyloxy)cyclopentylamino)-9H-purin-9-yl)-5-(hydroxymethyl)tetrahydrofuran-3,4-diol] | 5.43 | 5.42 | – | – | – | –
OC[C@H]1O[C@@H](n2cnc3c(N[C@H]4CCC[C@@H]4OCc4cccc(F)c4)ncnc32)[C@H](O)[C@@H]1O [Compound 8, (2R,3R,4S,5R)-2-(6-((1S,2S)-2-(3-fluorobenzyloxy)cyclopentylamino)-9H-purin-9-yl)-5-(hydroxymethyl)tetrahydrofuran-3,4-diol] | 5.79 | 5.26 | – | – | – | –
Cc1ccccc1CO[C@H]1CCC[C@@H]1Nc1ncnc2c1ncn2[C@@H]1O[C@H](CO)[C@@H](O)[C@H]1O [Compound 7, (2R,3S,4R,5R)-2-(hydroxymethyl)-5-(6-((1S,2S)-2-(2-methylbenzyloxy)cyclopentylamino)-9H-purin-9-yl)tetrahydrofuran-3,4-diol] | 5.80 | 5.13 | 7.90 | – | – | –
Cc1ccc(CO[C@H]2CCC[C@@H]2Nc2ncnc3c2ncn3[C@@H]2O[C@H](CO)[C@@H](O)[C@H]2O)cc1 [Compound 3, (2R,3S,4R,5R)-2-(hydroxymethyl)-5-(6-((1S,2S)-2-(4-methylbenzyloxy)cyclopentylamino)-9H-purin-9-yl)tetrahydrofuran-3,4-diol] | 5.59 | 4.60 | 7.54 | – | – | –

Further lines, with some results ahead:

pKi [1] | pKi [2] | pKi [4] | SMILES | return of IOP to baseline levels, time post dosing ([3]; topical single dose 200 mcg) [h] | reduction of IOP ([3]; topical single dose 200 mcg in HPCD formulation, 2 hours post dosing) [%] | changes in IOP relative to baseline after dosing (in words) ([3]; topical single dose 200 mcg)
5.29 | 6.37 | 8.64 | Cc1ccccc1CO[C@@H]1CCC[C@H]1Nc1ncnc2c1ncn2[C@@H]1O[C@H](CO)[C@@H](O)[C@H]1O [Compound 18, (2R,3S,4R,5R)-2-(hydroxymethyl)-5-(6-((1R,2R)-2-(2-methylbenzyloxy)cyclopentylamino)-9H-purin-9-yl)tetrahydrofuran-3,4-diol] | 6 | 20 | –
5.58 | 5.47 | 8.58 | Cc1cccc(CO[C@@H]2CCC[C@H]2Nc2ncnc3c2ncn3[C@@H]2O[C@H](CO)[C@@H](O)[C@H]2O)c1 [Compound 17, (2R,3S,4R,5R)-2-(hydroxymethyl)-5-(6-((1R,2R)-2-(3-methylbenzyloxy)cyclopentylamino)-9H-purin-9-yl)tetrahydrofuran-3,4-diol] | – | – | do not show significant changes in IOP
5.89 | – | – | OC[C@H]1O[C@@H](n2cnc3c(N[C@H]4CCC[C@@H]4OCc4cccc(I)c4)ncnc32)[C@H](O)[C@@H]1O [Compound 11, (2R,3S,4R,5R)-2-(hydroxymethyl)-5-(6-((1S,2S)-2-(3-iodobenzyloxy)cyclopentylamino)-9H-purin-9-yl)tetrahydrofuran-3,4-diol] | – | – | do not show significant changes in IOP
< 4.00 | – | – | OC[C@H]1OC(n2cnc3c(NC4CCCCC4OCc4ccccc4)ncnc32)[C@H](O)[C@@H]1O (stereo partly shown) [Compound 5] | – | – | –
6.26 | – | – | OC[C@H]1O[C@@H](n2cnc3c(N[C@@H]4CCC[C@H]4OCc4cccc(I)c4)ncnc32)[C@H](O)[C@@H]1O [Compound 22, (2R,3S,4R,5R)-2-(hydroxymethyl)-5-(6-((1R,2R)-2-(3-iodobenzyloxy)cyclopentylamino)-9H-purin-9-yl)tetrahydrofuran-3,4-diol] | – | – | –
5.87 | 5.27 | 8.55 | Cc1cccc(CO[C@H]2CCC[C@@H]2Nc2ncnc3c2ncn3[C@@H]2O[C@H](CO)[C@@H](O)[C@H]2O)c1 [Compound 6, (2R,3S,4R,5R)-2-(hydroxymethyl)-5-(6-((1S,2S)-2-(3-methylbenzyloxy)cyclopentylamino)-9H-purin-9-yl)tetrahydrofuran-3,4-diol] | – | – | –
< 4.00 | – | – | OC[C@H]1OC(n2cnc3c(NC4CCCCC4OCc4ccccc4)ncnc32)[C@H](O)[C@@H]1O (stereo partly shown) [Compound 4] | – | – | –
